From EPA's ToxValDB 9.5 come the findings set out here.

Series [1] has as its system Mus musculus. Conditions: for LD50: acute; for NOAEL (% diet) / LOAEL (% diet): duration: 105 days.
Series [2] deals with Rattus norvegicus. Conditions: for LD50 / LC50: acute.
Series [3] concerns Rattus norvegicus. The settings on record: repeat dose other; oral.
The subject of series [4] is Oryctolagus sp. Conditions: acute; dermal; occlusive.
In series [5] the test system is Rattus norvegicus. The settings on record: subchronic; duration: 13 weeks; oral; water; M/F; Fischer 344; Deaths + Body Weight Changes: decrease + Food Consumption: decrease + Hematology: RBC decrease, Hct decrease, Hgb decrease, Plt increase + ….
In series [6] the test system is Rattus norvegicus. The settings on record: subchronic; duration: 90 days; oral; gavage; M/F; increased liver weight.
For series [7], the system named is Rattus norvegicus. The settings on record: subchronic; duration: 90 days; oral; gavage; Liver: Increased relative weight + Liver: Increased weight.
Where [8] appears, read: developmental, oral, gavage, CD1.
Where [9] appears, read: reproduction developmental, oral, drinking water, CD1, generation: F1.
[10] abbreviates: reproduction developmental, oral, gavage, F, CD1.
[11] abbreviates: developmental, duration: 19 days, inhalation, Sprague-Dawley.
Where [12] appears, read: reproduction developmental, duration: 19 days, inhalation, F, Sprague-Dawley.
Where [13] appears, read: reproduction developmental, duration: 55 days, oral, generation: F0.
Where [14] appears, read: reproduction developmental, duration: 112 days, oral, generation: F0.
Setting [15] is: reproduction developmental, duration: 112 days, oral, generation: F1.
Setting [16] is: subchronic, duration: 13 weeks, oral, drinking water, B6C3F1.
Setting [17] is: subchronic, duration: 13 weeks, oral, drinking water, Fischer 344.
Where [18] appears, read: subchronic, duration: 13 weeks, oral, drinking water, Wistar.
[19] abbreviates: subchronic, duration: 89 days, oral, gavage, Sprague-Dawley.

Values joined by “and” are separate entries in the source; they are usually repeats but may differ in a detail not shown here. Equal entries are not always repeated. A value given as a limit tells only on which side of the number the result lay.

`CCO` [Ethanol]: the LD50 (in general, the dose at which mortality reaches 50%) in series [1] (injection, Intraperitoneal, Swiss-Webster) is 9200 mg/kg; in series [1] (oral, NMRI), 8300 mg/kg; in series [2] (injection, Intraperitoneal, Wistar), 6710 mg/kg and 5100 mg/kg; in series [2] (oral, Wistar), 10600 mg/kg and 7060 mg/kg. For the same compound, the lowest-observed-adverse-effect level (LOAEL) (in general, the lowest dose or exposure tested at which an adverse effect was seen) is greater than 6400 mg/kg-day in series [1] (setting [8]); 3600 mg/kg-day in series [1] (setting [10]); greater than 37700 mg/m3 in series [2] (setting [11]); 37700 mg/m3 in series [2] (setting [12]); 319 mg/kg-day in series [3]. Further, the NOAEL – broadly, the highest dose or exposure tested at which no adverse effect was seen – in series [1] (setting [8]) is no less than 6400 mg/kg-day; in series [1] (setting [10]), 2200 mg/kg-day; in series [2] (setting [11]), no less than 37700 mg/m3; in series [2] (setting [12]), 30100 mg/m3; in series [3], 31.9 mg/kg-day. Also, the “NOAEL (% diet)” value was 15 in series [1] (reproduction developmental, oral, drinking water, CD1, generation: F0); 10 in series [1] (setting [9]); 2 in series [2] (setting [13]); less than 5 in series [2] (setting [14]); no more than 5 in series [2] (setting [15]). The “LOAEL (% diet)” value in series [1] (setting [9]) was 15; in series [1] (reproduction developmental, oral, drinking water, CD1, generation: F2) it was greater than 15; in series [2] (setting [13]), 5; in series [2] (setting [14]), no more than 5; in series [2] (setting [15]) it was greater than 5.
`c1ccncc1` [Pyridine]: the lowest-observed-adverse-effect level (LOAEL) is 26.5 mg/kg-day in series [1] (setting [16]); 25 mg/kg-day in series [1] (subchronic, duration: 13 weeks, oral, gavage, B6C3F1); 38 mg/kg-day in series [2] (setting [17]); 38 mg/kg-day in series [2] (setting [18]); 12.5 mg/kg-day in series [2] (subchronic, duration: 13 weeks, oral, gavage, Fischer 344); 10 mg/kg-day in series [2] (setting [19]). The compound also displayed an LOAEL in series [6] of 10 mg/kg-day. For the same compound, the no-observed-adverse-effect level (NOAEL) came out at 13.2 mg/kg-day in series [1] (setting [16]); 15.2 mg/kg-day in series [2] (setting [17]); 15.2 mg/kg-day in series [2] (setting [18]); 1 mg/kg-day in series [2] (setting [19]); 1 mg/kg-day in series [6]; 1 mg/kg-day in series [7]. Also, in series [4], the LD50 was ≥ 1000 mg/kg and ≤ 2000 mg/kg. Further, the LC50 in series [2] (inhalation) is less than 12900 mg/m3; in series [2] (inhalation, Crl:CD(SD) BR) it was ≥ 15900 mg/m3 and ≤ 19400 mg/m3; in series [2] (inhalation, Sprague-Dawley) it was 29200 mg/m3 and 29100 mg/m3. Besides, the NOEL in series [5] is less than 7.6 mg/kg-day.
